According to patent publication US8217039B2, “Aprepitant polymorph mixtures” (Dr. Reddy's Laboratories Ltd., priority 2006, dated 2012):
In brackets after ≈: the same amount, converted by molar mass.

Legend:
[1] = Stability studies of 50:50 intimate mixture under stress conditions (Form I to Form II ratio by XRPD); type: physicochemical; conditions: milling, micronization, or drying at about 90° C. for prolonged periods
Experimental: Experimental conditions for performing the XRPD analysis for quantification were as follows: Process the diffraction peak for Form II≈21.15° (2θ) with constant smooth factor of 0.07 to check the detection of Form II and for the quantification of Form II the area of Form II peak and reference peak of Form I were taken. The Form I and Form II areas of two preparations of the test sample were noted. Then average the Form I and Form II areas. The percentage of Form II in Form I is calculated by the following formula: % of Form II=[(S2/S1)÷K=(S2/S1)]×100 • S1=Area of peak corresponding to Form I • S2=Area of peak corresponding to Form II K=Response constant for Form II relative to Form I. The areas of the peaks associated with Form I and Form II (characteristic peaks) were measured using Bruker X-ray diffraction evaluation software. From these areas, the response constant for Form II relative to Form I was determined. The value for the K factor was 0.32. A 50:50 weight ratio intimate mixture of aprepitant Form I and Form II prepared using the process of Example 12 was subjected to different conditions to determine the stability of the mixture under stress conditions.

[2] = 2:1 v/v methanol/water mixture at 0° C.; cited from earlier work
[3] = cited from earlier work

| SMILES | conversion to Form I upon stress conditions [1] | solubility [2] [µg/mL] | thermodynamic stability compared with other crystalline forms ([3]; compared with Form II) | hygroscopicity ([3]; compared with other crystalline forms) | numeric ratio of solubilities (Form II vs Form I) [2] |
| --- | --- | --- | --- | --- | --- |
| C[C@@H](O[C@H]1OCCN(Cc2n[nH]c(=O)[nH]2)[C@H]1c1ccc(F)cc1)c1cc(C(F)(F)F)cc(C(F)(F)F)c1 [5-[[(2R,3S)-2-[(1R)-1-[3,5-bis(trifluoromethyl)phenyl]ethoxy]-3-(4-fluorophenyl)-4-morpholinyl]methyl]-1,2-dihydro-3H-1,2,4-triazol-3-one] | does not convert to the more stable Form I | – | – | – | – |
| C[C@@H](O[C@H]1OCCN(Cc2n[nH]c(=O)[nH]2)[C@H]1c1ccc(F)cc1)c1cc(C(F)(F)F)cc(C(F)(F)F)c1 [Form I, 5-[[(2R,3S)-2-[(1R)-1-[3,5-bis(trifluoromethyl)phenyl]ethoxy]-3-(4-fluorophenyl)-4-morpholinyl]methyl]-1,2-dihydro-3H-1,2,4-triazol-3-one] | – | 900 ± 100 (≈ 1680 µM) | superior thermodynamic stability | non-hygroscopic | – |
| C[C@@H](O[C@H]1OCCN(Cc2n[nH]c(=O)[nH]2)[C@H]1c1ccc(F)cc1)c1cc(C(F)(F)F)cc(C(F)(F)F)c1 [Form II, 5-[[(2R,3S)-2-[(1R)-1-[3,5-bis(trifluoromethyl)phenyl]ethoxy]-3-(4-fluorophenyl)-4-morpholinyl]methyl]-1,2-dihydro-3H-1,2,4-triazol-3-one] | – | 1300 ± 200 (≈ 2430 µM) | – | – | 1.4 |
